For orientation: inhibition means the drop in the measured response relative to a control, in per cent. What is called pIC50 is the IC50 on a negative log10 scale, so that one unit is a factor of ten.

This note sets out measurements from patent US20110257220A1, “3,11 b-cis-Dihydrotetrabenazine for the Treatment of Schizophrenia and Other Psychoses” (CAMBRIDGE LABORATORIES (IRELAND) LIMITED, priority 2005, published 2011).

Data set [1] concerns the target T1, Sigma σ2 Receptor (Rattus norvegicus, UniProt Q5U3Y7).
T1 construct: from tissue; host or cells: Wistar rat brain
T1 sequence (Q5U3Y7 1-176): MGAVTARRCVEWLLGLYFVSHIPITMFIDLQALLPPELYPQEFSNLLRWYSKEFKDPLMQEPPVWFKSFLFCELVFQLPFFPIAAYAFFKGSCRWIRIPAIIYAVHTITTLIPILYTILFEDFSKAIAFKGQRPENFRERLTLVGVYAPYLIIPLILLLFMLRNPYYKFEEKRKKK
The data set can be described thus: Sigma σ2 receptor radioligand binding ([3H] Ifenprodil). More on the design: species or system Wistar rat. Conditions: 10 μM solution; for inhibition at 10 µM: read-out: Percentage Inhibition of Specific Binding, σ2 Receptor. How it is done: (§1) The four dihydrotetrabenazine isomers A, B, C and D were subjected to specific binding assays to test their ability to bind to the receptors and transporter proteins described below. The results are set out in Table 5
• Reference: Hashimoto et al., Eur. J. Pharmacol., 236:159-163, (1993) • Source: Wistar rat brain • Ligand: 3 nM [3H]

The target of data set [2] is T2, Serotonin Transporter (SERT) (Homo sapiens, UniProt P31645).
T2 construct: expressed in transfected cells; host or cells: HEK-293 cells
The data set can be described thus: Serotonin transporter radioligand binding ([125I] RTI-55). Conditions: for inhibition at 10 µM: read-out: Percentage Inhibition of Specific Binding, SERT. As for the experimental part: as §1
(i) Serotonin Transporter (SERT):
• Reference: Gu et al., J. Biol. Chem., 269(10):7124-7130, (1994) • Source: Human recombinant HEK-293 cells • Ligand: 0.15 nM [125I] RTI-55 • Vehicle: 1% DMSO • Incubation time/Temp: 3 hours @ 4° C. • Incubation buffer: 100 mM NaCl, 50 mM Tris HCl, 1 μM Leupeptin, 10 μM PMSF, pH 7.4 • Non Specific ligand: 10 μM Imipramine • Kd: 0.17 nM • Bmax: 0.41 pmole/mg protein • Specific binding: 95% • Quantitation method: Radioligand binding • Significance criteria: ≧50% of maximum stimulation or inhibition

Data set [3] addresses T3, α2c Adrenergic receptor (Homo sapiens, UniProt P18825).
T3 construct: expressed in transfected cells; host or cells: insect Sf9 cells
T3 sequence (P18825 1-462): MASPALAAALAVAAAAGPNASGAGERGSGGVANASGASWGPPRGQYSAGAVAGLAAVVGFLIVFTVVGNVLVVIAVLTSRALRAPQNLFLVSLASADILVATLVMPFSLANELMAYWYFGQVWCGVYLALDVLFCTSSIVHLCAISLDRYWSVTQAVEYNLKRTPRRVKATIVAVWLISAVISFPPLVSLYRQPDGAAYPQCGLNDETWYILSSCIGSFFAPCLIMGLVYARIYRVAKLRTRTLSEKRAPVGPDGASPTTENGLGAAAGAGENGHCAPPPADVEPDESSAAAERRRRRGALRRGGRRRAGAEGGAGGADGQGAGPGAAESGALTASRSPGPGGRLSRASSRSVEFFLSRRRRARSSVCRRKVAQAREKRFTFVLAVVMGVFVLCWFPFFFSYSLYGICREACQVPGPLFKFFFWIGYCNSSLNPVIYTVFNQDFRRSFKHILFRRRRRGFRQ
Briefly: α2c Adrenergic receptor radioligand binding ([3H] MK-912). Conditions: 10 μM solution; for inhibition at 10 µM: read-out: Percentage Inhibition of Specific Binding, α2c receptor. How it is done: as §1
(k) α2, Adrenergic Receptor
α2c Adrenergic receptor binding activity was determined using the method of Uhlen et al., J. Pharmacol. Exp. Ther. (1994), 271:1558-1565, and the following conditions: • Source: Human recombinant insect Sf9 cells • Ligand: 1 nM [^3H]

Data set [4] relates to female hooded-Lister rats. The data set can be described thus: Novel object recognition (NOR) task, sub-chronic PCP-induced cognitive deficit. It counts as in vivo, rat. An excerpt: Certain pre-clinical tests allow the observation of relatively subtle cognitive deficits in the rat that resemble cognitive symptoms in subjects with schizophrenia. The cognitive deficits observed are seen in behaviours such as working memory deficits which may be measured by recognition tasks such as the novel object recognition (NOR) paradigm. A recognition memory task allows the comparison between presented stimuli and previously stored information. Ennaceur & Delacour, Behav. Brain Res. 31: 47-59 (1988) described the NOR test in rats which was based on the differential exploration of familiar and new objects. The NOR test is a non-rewarded, ethologically relevant paradigm based on the spontaneous exploratory behaviour of rats which measures working memory. Each session consists of two trials. In the first trial, the rats are exposed to two identical objects in an open field. During the second trial, rats are exposed to two dissimilar objects, one familiar object from the first trial and one new object. Object recognition in rats can be measured as the difference in time spent exploring the familiar and the new object.
The abovementioned rodent model was used to assess the effects of the Isomer A on sub-chronic PCP-induced deficits in working memory using the novel object recognition (NOR) paradigm. The working hypothesis was that both acute and sub-chronic treatment with Isomer A will attenuate the selective working memory deficit induced by sub-chronic PCP as measured in the NOR test paradigm.
Rats are allowed to habituate to the empty test box and the behavioural test room environment for 1 hour on day 1. Prior to behavioural testing on day 2 rats are given a further 3 minutes habituation.
Following the 3 minute habituation period, the rats are given two 3 minute trials (T1 and T2) which are separated by a 1 minute inter-trial interval in the home cage during which the objects are changed.
In this trial, the animals are allowed to explore two identical objects (A1 and A2) for 3 minutes.
In this trial, the animals explore a familiar object (A) from T1 and a novel object (B) for 3 minutes. The familiar object presented during T2 is a duplicate of the object presented in T1 in order to avoid any olfactory trails.
The object exploration is defined by animals licking, sniffing or touching the object with the forepaws whilst sniffing, but not leaning against, turning around, standing or sitting on the object. The exploration time (s) of each object (A1, A2, A and B) in each trial are recorded using two stopwatches and the following factors are calculated: • Total exploration time of both objects in the acquisition trial (s). • Total exploration time of both objects in the retention trial (s). • Habituation of exploratory activity. The LMA includes the exploration time, as measured by the number of lines crossed, for both the trials. • Discrimination index, which is calculated as shown below;
(time spent exploring novel object−time spent exploring familiar object)÷total time spent in exploring the objects
Behaviour in all trials was recorded on video for subsequent blind scoring.
50 female hooded-Lister rats (Harlan, UK) were used as subjects for these studies. Rats were housed in groups of 5 under standard laboratory conditions under a 12 hr light:dark cycle, lights on at 0700 hr. All testing was carried out in the light phase. Food and water were freely provided. […]

pIC50: −log10 of the molar value. Entries after “also recorded” stand apart in the source; their conditions may differ.

T2 sequence (P31645 whole entry): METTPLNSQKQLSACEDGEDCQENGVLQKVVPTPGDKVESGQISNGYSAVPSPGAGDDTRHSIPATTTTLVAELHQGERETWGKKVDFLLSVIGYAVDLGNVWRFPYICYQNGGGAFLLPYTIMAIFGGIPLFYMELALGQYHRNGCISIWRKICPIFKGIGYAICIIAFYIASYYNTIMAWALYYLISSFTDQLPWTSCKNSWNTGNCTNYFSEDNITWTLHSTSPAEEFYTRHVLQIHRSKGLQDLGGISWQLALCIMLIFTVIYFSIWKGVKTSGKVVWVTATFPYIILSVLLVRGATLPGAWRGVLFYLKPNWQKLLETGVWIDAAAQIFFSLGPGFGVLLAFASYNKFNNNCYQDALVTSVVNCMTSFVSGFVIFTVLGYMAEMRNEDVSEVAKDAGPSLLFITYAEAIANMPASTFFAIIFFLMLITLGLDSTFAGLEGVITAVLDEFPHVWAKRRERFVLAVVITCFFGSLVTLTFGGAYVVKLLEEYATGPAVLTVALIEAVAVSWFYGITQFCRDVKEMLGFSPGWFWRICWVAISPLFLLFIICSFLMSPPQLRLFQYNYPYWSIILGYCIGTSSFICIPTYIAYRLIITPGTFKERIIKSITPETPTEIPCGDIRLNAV

For `COc1cc2c(cc1OC)[C@H]1C[C@@H](O)[C@H](CC(C)C)CN1CC2` (single isomer, unassigned; isomer d) [Isomer D], in data set [1], the “Percentage Inhibition of Specific Binding, σ2 Receptor” value is reported as 69%. For the same compound, the “Percentage Inhibition of Specific Binding, SERT” value in data set [2] (10 μM solution) came to 8%. For the same compound, the “Percentage Inhibition of Specific Binding, α2c receptor” value in data set [3] amounted to 74%.

As to `COc1cc2c(cc1OC)C1CC(O)C(CC(C)C)CN1CC2` (single isomer, unassigned) [Isomer C], the inhibition at 10 µM in data set [1] is 61%; in data set [2] (10 μM solution) it was 77%; in data set [3], 3%. In addition, the negative-log IC50 (pIC50) in data set [2] (value in parentheses, unit inferred) was 5.56.

For `COc1cc2c(cc1OC)[C@@H]1C[C@@H](O)[C@H](CC(C)C)CN1CC2` (single isomer, unassigned) [Isomer A], the inhibition at 10 µM in data set [1] is 64%; in data set [2] (10 μM solution) it was 19%; in data set [3] it was 56%. The “Sedation (observation of behaviour)” value in data set [4] (30 mg/kg Isomer A p.o., rats in NOR arena) is “did not appear sedated”. Also, the “Locomotor activity in the test arena (number of lines crossed, T1+T2)” value in data set [4] (30 mg/kg Isomer A p.o., sub-chronic PCP rats, FIG. 4) is “significant effect to reduce locomotor activity”. The “Attenuation of sub-chronic PCP-induced deficit, retention phase (exploration time of familiar vs novel object)” value in data set [4] (Isomer A 3-30 mg/kg p.o. acute, 30 min before test, sub-chronic PCP 2 mg/kg i.p. twice daily 7 days, FIG. 2) is reported as “has efficacy to attenuate the sub-chronic PCP-induced deficit; also recorded: significant at the highest dose”. In addition, in data set [4] (Isomer A 3-30 mg/kg p.o., sub-chronic PCP rats, FIG. 1), the “Exploration of two identical objects in the acquisition phase (T1)” value is on record as “no effect”.

For the compound `COc1cc2c(cc1OC)[C@H]1C[C@H](O)[C@@H](CC(C)C)CN1CC2` (single isomer, unassigned) [Isomer B], the inhibition at 10 µM was 64% in data set [1], 86% in data set [2] (10 μM solution) and -6% in data set [3].
